Reference: PubChem BioAssay AID1918947 (Molecular Pharmacology Branch, DTP, NCI, 2023)
Where “and” joins values, the source holds several entries; their conditions need not be identical. Identical values can stand only once. One block for each molecule: values may come before it.

System: A498 complex spheroid viability
Experiment: Anticancer human tumor A498 cell line growth inhibition;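 note: spheroids exposed to agents for seven days before readout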;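 for viability, T/C: 100% = DMSO vehicle-treated spheroids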
Conditions: for viability, T/C: stronger effect = lower value
Procedure, shortened: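 Multicellular complex spheroids of tumor cells with human endothelial cells (HUVEC) and mesenchymal stem cells; the LSD1 inhibitor iadademstat was combined with standard-of-care or investigational agents. Top concentration at or near clinical Cmax, half-log dilutions; final DMSO ≤0.25%.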

[1] = curve of first compound, second compound 0.1 µM
[2] = curve of first compound, second compound 0.316 µM
[3] = curve of first compound, second compound 1 µM
[4] = curve of first compound, second compound 3.16 µM
[5] = curve of first compound, second compound 10 µM
[6] = second compound 0.1 µM, first compound 0.0316 µM
[7] = second compound 0.1 µM, first compound 0.1 µM
[8] = second compound 0.1 µM, first compound 0.316 µM
[9] = second compound 0.1 µM, first compound 1 µM
[10] = second compound 0.1 µM, first compound 3.16 µM
[11] = second compound 0.1 µM, first compound 10 µM
[12] = second compound 0.316 µM, first compound 0.0316 µM
[13] = second compound 0.316 µM, first compound 0.1 µM
[14] = second compound 0.316 µM, first compound 0.316 µM
[15] = second compound 0.316 µM, first compound 1 µM
[16] = second compound 0.316 µM, first compound 3.16 µM
[17] = second compound 0.316 µM, first compound 10 µM
[18] = second compound 1 µM, first compound 0.0316 µM
[19] = second compound 1 µM, first compound 0.1 µM
[20] = second compound 1 µM, first compound 0.316 µM
[21] = second compound 1 µM, first compound 1 µM
[22] = second compound 1 µM, first compound 3.16 µM
[23] = second compound 1 µM, first compound 10 µM
[24] = second compound 3.16 µM, first compound 0.0316 µM
[25] = second compound 3.16 µM, first compound 0.1 µM
[26] = second compound 3.16 µM, first compound 0.316 µM
[27] = second compound 3.16 µM, first compound 1 µM
[28] = second compound 3.16 µM, first compound 3.16 µM
[29] = second compound 3.16 µM, first compound 10 µM
[30] = second compound 10 µM, first compound 0.0316 µM
[31] = second compound 10 µM, first compound 0.1 µM
[32] = second compound 10 µM, first compound 0.316 µM
[33] = second compound 10 µM, first compound 1 µM
[34] = second compound 10 µM, first compound 3.16 µM
[35] = second compound 10 µM, first compound 10 µM

SMILES: O=C(c1cc(Cc2n[nH]c(=O)c3ccccc23)ccc1F)N1CCN(C(=O)C2CC2)CC1 + NC1CCC(NC2CC2c2ccccc2)CC1
- IC50 [1]: > 10000 nM
- IC50 [2]: > 10000 nM
- IC50 [3]: > 10000 nM
- IC50 [4]: > 10000 nM
- IC50 [5]: > 10000 nM
- viability, T/C [6]: 85.1%
- viability, T/C [7]: 82.7%
- viability, T/C [8]: 89.1%
- viability, T/C [9]: 85.8%
- viability, T/C [10]: 84.7%
- viability, T/C [11]: 82.1%
- viability, T/C [12]: 92.3%
- viability, T/C [13]: 93.3%
- viability, T/C [14]: 94.4%
- viability, T/C [15]: 94.4%
- viability, T/C [16]: 85%
- viability, T/C [17]: 84.4%
- viability, T/C [18]: 82.3%
- viability, T/C [19]: 87.4%
- viability, T/C [20]: 91.1%
- viability, T/C [21]: 87.4%
- viability, T/C [22]: 79.5%
- viability, T/C [23]: 75.9%
- viability, T/C [24]: 79.8%
- viability, T/C [25]: 85.3%
- viability, T/C [26]: 69.5%
- viability, T/C [27]: 85.5%
- viability, T/C [28]: 79.2%
- viability, T/C [29]: 77.1%
- viability, T/C [30]: 71%
- viability, T/C [31]: 73.7%
- viability, T/C [32]: 74.4%
- viability, T/C [33]: 74.1%
- viability, T/C [34]: 62.5%
- viability, T/C [35]: 66.8%

- IC50 (curve of compound): 52.5 nM and 44.6 nM
SMILES: CC[C@@]1(O)C(=O)OCc2c1cc1n(c2=O)Cc2cc3c(CN(C)C)c(O)ccc3nc2-1
- viability, T/C (compound 0.000316 µM): 106% and 95.2%
- viability, T/C (compound 0.001 µM): 103% and 95.8%
- viability, T/C (compound 0.00316 µM): 86.4% and 82.6%
- viability, T/C (compound 0.01 µM): 84.5% and 79.2%
- viability, T/C (compound 0.0316 µM): 62.7% and 56.4%
- viability, T/C (compound 0.1 µM): 33.7% and 32.4%

SMILES: CCN(c1cc(-c2ccc(CN3CCOCC3)cc2)cc(C(=O)NCc2c(C)cc(C)[nH]c2=O)c1C)C1CCOCC1 + NC1CCC(NC2CC2c2ccccc2)CC1
- IC50 [1]: > 3000 nM
- IC50 [2]: > 3000 nM
- IC50 [3]: > 3000 nM
- IC50 [4]: > 3000 nM
- IC50 [5]: > 3000 nM
- viability, T/C (second compound 0.1 µM, first compound 0.00949 µM): 85.8%
- viability, T/C (second compound 0.1 µM, first compound 0.03 µM): 90.7%
- viability, T/C (second compound 0.1 µM, first compound 0.0949 µM): 92.1%
- viability, T/C (second compound 0.1 µM, first compound 0.3 µM): 91.4%
- viability, T/C (second compound 0.1 µM, first compound 0.949 µM): 94.4%
- viability, T/C (second compound 0.1 µM, first compound 3 µM): 92.9%
- viability, T/C (second compound 0.316 µM, first compound 0.00949 µM): 93.2%
- viability, T/C (second compound 0.316 µM, first compound 0.03 µM): 101%
- viability, T/C (second compound 0.316 µM, first compound 0.0949 µM): 100%
- viability, T/C (second compound 0.316 µM, first compound 0.3 µM): 98.9%
- viability, T/C (second compound 0.316 µM, first compound 0.949 µM): 92.4%
- viability, T/C (second compound 0.316 µM, first compound 3 µM): 92.9%
- viability, T/C (second compound 1 µM, first compound 0.00949 µM): 91.7%
- viability, T/C (second compound 1 µM, first compound 0.03 µM): 97%
- viability, T/C (second compound 1 µM, first compound 0.0949 µM): 97.3%
- viability, T/C (second compound 1 µM, first compound 0.3 µM): 90.1%
- viability, T/C (second compound 1 µM, first compound 0.949 µM): 86.8%
- viability, T/C (second compound 1 µM, first compound 3 µM): 87.2%
- viability, T/C (second compound 3.16 µM, first compound 0.00949 µM): 87.3%
- viability, T/C (second compound 3.16 µM, first compound 0.03 µM): 95%
- viability, T/C (second compound 3.16 µM, first compound 0.0949 µM): 90.6%
- viability, T/C (second compound 3.16 µM, first compound 0.3 µM): 89.1%
- viability, T/C (second compound 3.16 µM, first compound 0.949 µM): 85.8%
- viability, T/C (second compound 3.16 µM, first compound 3 µM): 78.2%
- viability, T/C (second compound 10 µM, first compound 0.00949 µM): 80.4%
- viability, T/C (second compound 10 µM, first compound 0.03 µM): 87.5%
- viability, T/C (second compound 10 µM, first compound 0.0949 µM): 88.4%
- viability, T/C (second compound 10 µM, first compound 0.3 µM): 82.1%
- viability, T/C (second compound 10 µM, first compound 0.949 µM): 82.7%
- viability, T/C (second compound 10 µM, first compound 3 µM): 72.9%

SMILES: COc1ccc([C@@H](O)c2cc(-c3ncnc4cc(N5CCOCC5)ccc34)c(F)cc2Cl)nn1 + NC1CC1c1ccc(-c2cccc(O)c2)cc1
- IC50 [1]: 96.3 nM
- IC50 [2]: 112 nM
- IC50 [3]: 96.2 nM
- IC50 [4]: 89 nM
- IC50 [5]: 69.9 nM
- viability, T/C [6]: 75%
- viability, T/C [7]: 49.5%
- viability, T/C [8]: 28.1%
- viability, T/C [9]: 16.7%
- viability, T/C [10]: 9.62%
- viability, T/C [11]: 5.97%
- viability, T/C [12]: 80.4%
- viability, T/C [13]: 52.9%
- viability, T/C [14]: 28.8%
- viability, T/C [15]: 19.5%
- viability, T/C [16]: 9.72%
- viability, T/C [17]: 6.4%
- viability, T/C [18]: 70.6%
- viability, T/C [19]: 50.1%
- viability, T/C [20]: 27.4%
- viability, T/C [21]: 17.2%
- viability, T/C [22]: 9.2%
- viability, T/C [23]: 6.15%
- viability, T/C [24]: 73.1%
- viability, T/C [25]: 46.8%
- viability, T/C [26]: 29.7%
- viability, T/C [27]: 16.7%
- viability, T/C [28]: 8.9%
- viability, T/C [29]: 5.52%
- viability, T/C [30]: 67.1%
- viability, T/C [31]: 42.5%
- viability, T/C [32]: 24.5%
- viability, T/C [33]: 16.6%
- viability, T/C [34]: 8.67%
- viability, T/C [35]: 5.51%
